Measured values as given in ChEMBL document CHEMBL5537154, “Smart glypican-3-targeting peptide-chlorin e6 conjugates for targeted photodynamic therapy of hepatocellular carcinoma” (Eur J Med Chem, 2024).
Active and inactive are the calls of the source. The calls are words filed in the database; no cut-off is given here. Peptide text beside a SMILES is read from it.

Legend:
MCF7 = assay: Antiproliferative activity against human MCF7 cells under 10 J/cm2 light irradiation at 660 nm by CCK8 assay; type: functional, cell-based; conditions: MCF7, light or radiation study
[1] = Drug uptake in human MCF7 cells incubated for 2 hrs by fluorescence based assay; type: ADME, cell-based; conditions: mcf7, 2 h
HepG2 [2] = assay: Induction of apoptosis in human HepG2 cells assessed as necrotic cells at 2.5 uM incubated for 24 hrs followed by 10 J/cm2 of light irradiation at 660 nm measured after 24 hrs by Annexin V-FITC/PI staining based flow cytometry relative to control; type: functional; conditions: time 48 hrs
[3] = Drug distribution in tumor of BALB/C nude mouse model xenografted with human HepG2 cells at 1 to 2 uM/kg, iv measured for 1 to 4 hrs by fluorescence imaging analysis; type: ADME, organism-based, Neoplasm; conditions: in vivo, dose lower 1 µM/Kg, time lower 1 hrs, dose upper 2 µM/Kg, time upper 4 hrs
[4] = Drug distribution in tumor of BALB/C nude mouse model xenografted with human HepG2 cells at 1 uM/kg, iv measured after 2 hrs by fluorescence spectrophotometry; type: ADME, organism-based, Neoplasm; conditions: in vivo
HepG2 [5] = assay: Antitumor activity against human HepG2 cells xenografted in BALB/C nude mouse model assessed as decrease in Ki67 expression at 1 to 2 uM/kg, iv administered every two days for 21 days along with 250 mW/cm2 light irradiation at 660 nm for 10 mins at 1 hr post-compound administration by […] based analysis; type: functional, organism-based; conditions: dose 1-2 µM/Kg, time 505.166 hrs

SMILES: C=Cc1c(C)c2cc3nc(c(CC(=O)O)c4[nH]c(cc5nc(cc1[nH]2)C(C)=C5CC)c(C)c4C(=O)NCCCC(=O)N[C@@H](CC(=O)O)C(=O)N[C@@H](Cc1cnc[nH]1)C(=O)N[C@@H](CC(C)C)C(=O)N[C@@H](C)C(=O)N[C@@H](CO)C(=O)N[C@@H](CC(C)C)C(=O)N[C@@H](Cc1c[nH]c2ccccc12)C(=O)N[C@@H](Cc1c[nH]c2ccccc12)C(=O)NCC(=O)N[C@H](C(=O)N[C@@H](CCC(=O)O)C(=O)N[C@@H](CC(C)C)C(=O)O)[C@@H](C)O)[C@@H](CCC(=O)O)[C@@H]3C (HELM PEPTIDE1{[C=Cc1c(C)c2cc3nc(c(CC(=O)O)c4[nH]c(cc5nc(cc1[nH]2)C(C)=C5CC)c(C)c4C(=O)[*:2])[C@@H](CCC(=O)O)[C@@H]3C].[O=C(CCCN[*:1])[*:2]].D.H.L.A.S.L.W.W.G.T.E.L}$$$$V2.0)
- IC50 (MCF7): > 10 µM
- Drug uptake [1]: Not Active
- Activity (HepG2 [2]): 74%
- Drug uptake [3]: Active
- Drug uptake [4]: Active
- Activity (HepG2 [5]): Active
